The source made the active and inactive calls. No cut-off for these calls is given here.
Each molecule was assayed on HCC827 (assay: Protac activity at E3 ubiquitin ligase/EGFR in human HCC827 cells assessed as increase in degradation of EGFR at 100 nM incubated for 96 hrs by Western blot analysis relative to control). Details: not given.
Format: cell-based

SMILES | Emax [%]
O=C1CCC(N2Cc3c(NC(=O)CCCCCCCN4CCN(c5ccc(Nc6cc7c(N8CCC(CO)CC8)nc(Nc8ccc(F)cc8)nc7cn6)nc5)CC4)cccc3C2=O)C(=O)N1 (centres undefined) | 87

What follows are molecules tested on HCC827 (assay: Protac activity at E3 ubiquitin ligase/EGFR in human HCC827 cells assessed as increase in degradation of EGFR at 100 nM pretreated with lenalidomide for 2 hrs followed by compound addition and measured after 48 hrs by Western blot analysis). Details: not given.
Format: cell-based

SMILES | Activity
O=C1CCC(N2Cc3c(NC(=O)CCCCCCCN4CCN(c5ccc(Nc6cc7c(N8CCC(CO)CC8)nc(Nc8ccc(F)cc8)nc7cn6)nc5)CC4)cccc3C2=O)C(=O)N1 (centres undefined) | inactive

These molecules were tested on HCC827 (assay: Induction of apoptosis in human HCC827 cells assessed as viable cells at 1 uM incubated for 32 hrs by annexin V-FITC and PI staining based flow cytometry analysis (reference value: 72.15 %)). Details: read-out: Activity.
Format: functional

SMILES | viability at 1 µM [%]
O=C1CCC(N2Cc3c(NC(=O)CCCCCCCN4CCN(c5ccc(Nc6cc7c(N8CCC(CO)CC8)nc(Nc8ccc(F)cc8)nc7cn6)nc5)CC4)cccc3C2=O)C(=O)N1 (centres undefined) | 35.5

What follows are molecules tested on HCC827 (assay: Induction of cell cycle arrest in human HCC827 cells assessed as accumulation in G1 phase at 0.1 uM incubated for 32 hrs by PI staining based flow cytometry analysis (reference value: 50.48 %)). Details: not given.
Format: functional

SMILES | Activity [%]
O=C1CCC(N2Cc3c(NC(=O)CCCCCCCN4CCN(c5ccc(Nc6cc7c(N8CCC(CO)CC8)nc(Nc8ccc(F)cc8)nc7cn6)nc5)CC4)cccc3C2=O)C(=O)N1 (centres undefined) | 82.95

Each molecule was assayed on HCC827 (assay: Protac activity at E3 ubiquitin ligase/EGFR in human HCC827 cells assessed as increase in degradation of EGFR measured upto 96 hrs by Western blot analysis). Details: time hrs <=96, TDE = time-dependent effect.
Format: cell-based

SMILES | Activity
O=C1CCC(N2Cc3c(NC(=O)CCCCCCCN4CCN(c5ccc(Nc6cc7c(N8CCC(CO)CC8)nc(Nc8ccc(F)cc8)nc7cn6)nc5)CC4)cccc3C2=O)C(=O)N1 (centres undefined) | Tde

What follows are molecules tested on NCI-H1975 (assay: Antiproliferative activity against human NCI-H1975 cells harboring EGFR L858/T790M mutant assessed as reduction in cell viability incubated for 72 hrs by MTT assay). Details: NCI-H1975, 72 h.
Format: functional, cell-based

SMILES | IC50 [µM]
O=C1CCC(N2Cc3c(NC(=O)CCCCCCCN4CCN(c5ccc(Nc6cc7c(N8CCC(CO)CC8)nc(Nc8ccc(F)cc8)nc7cn6)nc5)CC4)cccc3C2=O)C(=O)N1 (centres undefined) | > 10

What follows are molecules tested on A549 (assay: Antiproliferative activity against human A549 cells harboring EGFR assessed as reduction in cell viability incubated for 72 hrs by MTT assay). Details: A549, 72 h.
Format: functional, cell-based

SMILES | IC50 [µM]
O=C1CCC(N2Cc3c(NC(=O)CCCCCCCN4CCN(c5ccc(Nc6cc7c(N8CCC(CO)CC8)nc(Nc8ccc(F)cc8)nc7cn6)nc5)CC4)cccc3C2=O)C(=O)N1 (centres undefined) | > 10

Each molecule was assayed on NCI-H1975 (assay: Protac activity at E3 ubiquitin ligase/EGFR in human NCI-H1975 cells harboring EGFR T790M mutant assessed as increase in degradation of EGFR at 0.1 to 10 uM incubated for 48 hrs by Western blot analysis). Details: dose 0.1-10 µM.
Format: cell-based

SMILES | Activity
O=C1CCC(N2Cc3c(NC(=O)CCCCCCCN4CCN(c5ccc(Nc6cc7c(N8CCC(CO)CC8)nc(Nc8ccc(F)cc8)nc7cn6)nc5)CC4)cccc3C2=O)C(=O)N1 (centres undefined) | Active

Each molecule was assayed on HCC827 (assay: Induction of cell cycle arrest in human HCC827 cells assessed as accumulation in S phase at 1 uM incubated for 32 hrs by PI staining based flow cytometry analysis (reference value: 41.26 %)). Details: not given.
Format: functional

SMILES | Activity [%]
O=C1CCC(N2Cc3c(NC(=O)CCCCCCCN4CCN(c5ccc(Nc6cc7c(N8CCC(CO)CC8)nc(Nc8ccc(F)cc8)nc7cn6)nc5)CC4)cccc3C2=O)C(=O)N1 (centres undefined) | 10.63

These molecules were tested on HCC827 (assay: Induction of apoptosis in human HCC827 cells assessed as necrotic cells at 1 uM incubated for 32 hrs by annexin V-FITC and PI staining based flow cytometry analysis (reference value: 7.12 %)). Details: not given.
Format: functional

SMILES | Activity [%]
O=C1CCC(N2Cc3c(NC(=O)CCCCCCCN4CCN(c5ccc(Nc6cc7c(N8CCC(CO)CC8)nc(Nc8ccc(F)cc8)nc7cn6)nc5)CC4)cccc3C2=O)C(=O)N1 (centres undefined) | 9.74

What follows are molecules tested on HCC827 (assay: Induction of cell cycle arrest in human HCC827 cells assessed as accumulation in G2 phase at 0.1 uM incubated for 32 hrs by PI staining based flow cytometry analysis (reference value: 8.25 %)). Details: not given.
Format: functional

SMILES | Activity [%]
O=C1CCC(N2Cc3c(NC(=O)CCCCCCCN4CCN(c5ccc(Nc6cc7c(N8CCC(CO)CC8)nc(Nc8ccc(F)cc8)nc7cn6)nc5)CC4)cccc3C2=O)C(=O)N1 (centres undefined) | 6.26

These molecules were tested against Epidermal growth factor receptor (Homo sapiens) (UniProt P00533) (assay: Inhibition of EGFR in human HCC827 cells assessed as reduction in EGFR phosphorylation incubated for 36 hrs by Western blot analysis). Details: dose 0.1-1 µM.
Chain of Epidermal growth factor receptor (Homo sapiens) (P00533 whole entry): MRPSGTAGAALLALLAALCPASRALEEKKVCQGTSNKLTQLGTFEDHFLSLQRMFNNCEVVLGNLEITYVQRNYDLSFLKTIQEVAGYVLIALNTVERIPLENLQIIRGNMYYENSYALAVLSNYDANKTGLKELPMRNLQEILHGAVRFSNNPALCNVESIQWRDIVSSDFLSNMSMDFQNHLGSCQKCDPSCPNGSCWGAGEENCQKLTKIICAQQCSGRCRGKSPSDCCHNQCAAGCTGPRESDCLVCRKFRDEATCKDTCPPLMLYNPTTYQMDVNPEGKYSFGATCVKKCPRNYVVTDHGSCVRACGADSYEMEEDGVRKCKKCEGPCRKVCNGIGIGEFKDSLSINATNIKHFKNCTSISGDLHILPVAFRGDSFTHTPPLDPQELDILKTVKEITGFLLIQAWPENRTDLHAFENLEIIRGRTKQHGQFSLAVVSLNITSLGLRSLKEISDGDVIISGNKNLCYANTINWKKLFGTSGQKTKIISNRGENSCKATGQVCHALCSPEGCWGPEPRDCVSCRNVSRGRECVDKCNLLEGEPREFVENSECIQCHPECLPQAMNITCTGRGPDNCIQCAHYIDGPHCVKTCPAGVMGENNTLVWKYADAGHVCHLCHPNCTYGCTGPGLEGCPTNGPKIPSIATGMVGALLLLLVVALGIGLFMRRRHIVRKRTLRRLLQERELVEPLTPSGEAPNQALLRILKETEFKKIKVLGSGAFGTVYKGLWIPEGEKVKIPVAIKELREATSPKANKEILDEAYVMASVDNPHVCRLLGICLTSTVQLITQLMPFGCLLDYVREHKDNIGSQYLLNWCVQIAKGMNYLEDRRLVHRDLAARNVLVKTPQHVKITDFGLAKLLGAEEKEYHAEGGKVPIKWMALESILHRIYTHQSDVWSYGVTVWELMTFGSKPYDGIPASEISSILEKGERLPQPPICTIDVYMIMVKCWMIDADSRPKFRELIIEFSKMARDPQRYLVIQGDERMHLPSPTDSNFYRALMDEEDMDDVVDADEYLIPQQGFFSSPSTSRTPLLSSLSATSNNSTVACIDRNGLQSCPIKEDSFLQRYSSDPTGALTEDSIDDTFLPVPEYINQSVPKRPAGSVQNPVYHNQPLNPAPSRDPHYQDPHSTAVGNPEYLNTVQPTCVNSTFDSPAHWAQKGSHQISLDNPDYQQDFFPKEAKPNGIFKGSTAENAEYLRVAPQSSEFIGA
Format: cell-based

SMILES | inhibition
O=C1CCC(N2Cc3c(NC(=O)CCCCCCCN4CCN(c5ccc(Nc6cc7c(N8CCC(CO)CC8)nc(Nc8ccc(F)cc8)nc7cn6)nc5)CC4)cccc3C2=O)C(=O)N1 (centres undefined) | Dose-dependent effect

Each molecule was assayed on HCC827 (assay: Induction of apoptosis in human HCC827 cells assessed as late apoptotic cells at 0.1 uM incubated for 32 hrs by annexin V-FITC and PI staining based flow cytometry analysis (reference value: 14.23 %)). Details: not given.
Format: functional

SMILES | Activity [%]
O=C1CCC(N2Cc3c(NC(=O)CCCCCCCN4CCN(c5ccc(Nc6cc7c(N8CCC(CO)CC8)nc(Nc8ccc(F)cc8)nc7cn6)nc5)CC4)cccc3C2=O)C(=O)N1 (centres undefined) | 26.38

What follows are molecules tested on HCC827 (assay: Induction of cell cycle arrest in human HCC827 cells assessed as accumulation in G2 phase at 1 uM incubated for 32 hrs by PI staining based flow cytometry analysis (reference value: 8.25 %)). Details: not given.
Format: functional

SMILES | Activity [%]
O=C1CCC(N2Cc3c(NC(=O)CCCCCCCN4CCN(c5ccc(Nc6cc7c(N8CCC(CO)CC8)nc(Nc8ccc(F)cc8)nc7cn6)nc5)CC4)cccc3C2=O)C(=O)N1 (centres undefined) | 7.47

Reference: ChEMBL document CHEMBL4680163, “Discovery of potent epidermal growth factor receptor (EGFR) degraders by proteolysis targeting chimera (PROTAC)” (Eur J Med Chem, 2020)
